Experiments:
Format in all cases: in vivo
wheat [1] = assay: Test Example 5: effect on crop by foliage application, plastic box (symbol e); conditions: 320 g/ha, 3 weeks after application
Procedure, shortened: (§1)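 Diluvial soil, sterilized and boxed (21 × 13 × 7 cm), received spot-sown seed covered by about 1.5 cm soil; plants were then greenhouse-grown at 25–30° C.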

rice = assay: Test Example 4: effect on crop by soil treatment (symbol b); conditions: application herbicide amount 320 g/ha
Procedure, shortened: (§2)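 Sterilized diluvial soil, spot sowing, ~1.5 cm soil cover; greenhouse 25–30° C.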

Alopecurus myosuroides [2] = assay: Test Example 4: herbicidal effect by soil treatment (symbol J); conditions: application herbicide amount 320 g/ha
Procedure, shortened: (§3)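 Seeds were sown in sterilized diluvial soil, covered with about 1.5 cm of soil, and the soil surface was sprayed with a water-diluted emulsion of the compound at a predetermined rate. Plants grew in a greenhouse at 25° C. to 30° C.; effects were scored visually 3 weeks after application.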

[3] = system: directly sowed rice plant; assay: Test Example 3: effect on crop by foliage application, Wagner pot (symbol b); conditions: application herbicide amount 320 g/ha
Procedure, shortened: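 Plants are raised from seed in flooded paddy conditions: water stands 0.1–0.5 cm over alluvial soil, and the pot is kept in a greenhouse at 25–30 °C. Species sown are barnyardgrass (E. crus-galli var. crus-galli), Leptochloa chinensis, Cyperus difformis and rice.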

[4] = system: Echinochloa oryzacola Vasing.; assay: Test Example 2: herbicidal activity, application during weed generation in submerged conditions (symbol A); conditions: Table 23; application herbicide amount 320 g/ha; grade 0-5 by criteria of Test Example 1
Procedure, shortened: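 Flooded-soil post-emergence test: emulsion of compound, water-diluted to target rate, applied to paddy water surface at 1–2 leaf stage of mixed-sown weeds (alluvial soil, 4 cm water, 25–30° C. greenhouse); visual rating 3 weeks after application.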

Lolium multiflorum Lam. [5] = assay: Test Example 4: herbicidal effect by soil treatment (symbol K); conditions: application herbicide amount 320 g/ha
Procedure, shortened: as §3

Stellaria media = assay: Test Example 4: herbicidal effect by soil treatment (symbol P); conditions: application herbicide amount 320 g/ha
Procedure, shortened: as §3

rice plant = assay: Test Example 5: effect on crop by foliage application, plastic box (symbol b); conditions: 320 g/ha, 3 weeks after application
Procedure, shortened: as §1

Lolium multiflorum Lam. [6] = assay: Test Example 5: herbicidal effect by foliage application, plastic box (symbol K); conditions: 320 g/ha, 3 weeks after application
Procedure, shortened: (§4)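 Leaf-applied emulsion, water-diluted to a preset herbicide dose, on two-week-old seedlings raised in a 25° C. to 30° C. greenhouse; injury rated at 3 weeks using earlier criteria.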

wheat [7] = assay: Test Example 4: effect on crop by soil treatment (symbol e); conditions: application herbicide amount 320 g/ha
Procedure, shortened: as §2

Digitaria ciliaris = assay: Test Example 4: herbicidal effect by soil treatment (symbol F); conditions: application herbicide amount 320 g/ha
Procedure, shortened: as §3

corn = assay: Test Example 4: effect on crop by soil treatment (symbol c); conditions: application herbicide amount 320 g/ha
Procedure, shortened: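 Diluvial soil (sterilized) in boxes; seeds placed spot-wise alongside weed species; ~1.5 cm covering soil. Greenhouse, 25–30° C.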

Alopecurus myosuroides [8] = assay: Test Example 5: herbicidal effect by foliage application, plastic box (symbol J); conditions: 320 g/ha, 3 weeks after application
Procedure, shortened: as §4

rapeseed = assay: Test Example 4: effect on crop by soil treatment (symbol g); conditions: application herbicide amount 320 g/ha
Procedure, shortened: as §2

beet = assay: Test Example 4: effect on crop by soil treatment (symbol f); conditions: application herbicide amount 320 g/ha
Procedure, shortened: as §2

Compound	e: wheat, effect on crop (criteria of Test Example 1) (wheat [1])	Effect on crop grade, b: directly sowed rice plant (rice)	Herbicidal effect grade, J: Alopecurus myosuroides (Alopecurus myosuroides [2])	effect on crop b (directly sowed rice plant), grade 0-5 [3]	Herbicidal effect grade, A: Echinochloa oryzacola Vasing. [4]	Herbicidal effect grade, K: Lolium multiflorum Lam. (Lolium multiflorum Lam. [5])	Herbicidal effect grade, P: Stellaria media (Stellaria media)	b: directly sowed rice plant, effect on crop (criteria of Test Example 1) (rice plant)	K: Lolium multiflorum Lam., herbicidal effect (criteria of Test Example 1) (Lolium multiflorum Lam. [6])	Effect on crop grade, e: wheat (wheat [7])	Herbicidal effect grade, F: Digitaria ciliaris (Digitaria ciliaris)	Effect on crop grade, c: corn (corn)	J: Alopecurus myosuroides, herbicidal effect (criteria of Test Example 1) (Alopecurus myosuroides [8])	Effect on crop grade, g: rapeseed (rapeseed)	Effect on crop grade, f: beet (beet)	also measured
CC(=O)CC1CC(O)=C(c2c(C)cc(OCc3ccccc3)cc2C)C1=O (stereo not drawn) [7-018]	0 (Herbicidal ratio of 5% or lower (almost no effect))	0 (Herbicidal ratio of 5% or lower (almost no effect))	0 (Herbicidal ratio of 5% or lower (almost no effect))	3 (Herbicidal ratio of 40% or higher and lower than 70%)	1 (Herbicidal ratio of 5% or higher and lower than 20%)	0 (Herbicidal ratio of 5% or lower (almost no effect))	0 (Herbicidal ratio of 5% or lower (almost no effect))	2 (Herbicidal ratio of 20% or higher and lower than 40%)	2 (Herbicidal ratio of 20% or higher and lower than 40%)	0 (Herbicidal ratio of 5% or lower (almost no effect))	3 (Herbicidal ratio of 40% or higher and lower than 70%)	0 (Herbicidal ratio of 5% or lower (almost no effect))	0 (Herbicidal ratio of 5% or lower (almost no effect))	0 (Herbicidal ratio of 5% or lower (almost no effect))	0 (Herbicidal ratio of 5% or lower (almost no effect))	–
CCc1cc(-c2ccc(Cl)cc2)cc(C)c1C1=C(O)CC(CC(C)=NOC)C1=O (stereo not drawn) [6-066]	5 (Herbicidal ratio of 90% or more (almost completely withered))	–	–	5 (Herbicidal ratio of 90% or more (almost completely withered))	5 (Herbicidal ratio of 90% or more (almost completely withered))	–	–	5 (Herbicidal ratio of 90% or more (almost completely withered))	5 (Herbicidal ratio of 90% or more (almost completely withered))	–	–	–	5 (Herbicidal ratio of 90% or more (almost completely withered))	–	–	b: directly sowed rice plant, effect on crop grade (rice): 5 (Herbicidal ratio of 90% or more (almost completely withered)); J: Alopecurus myosuroides, herbicidal effect grade (Alopecurus myosuroides [2]): 5 (Herbicidal ratio of 90% or more (almost completely withered)); K: Lolium multiflorum Lam., herbicidal effect grade (Lolium multiflorum Lam. [5]): 5 (Herbicidal ratio of 90% or more (almost completely withered)); P: Stellaria media, herbicidal effect grade (Stellaria media): 0 (Herbicidal ratio of 5% or lower (almost no effect)); e: wheat, effect on crop grade (wheat [7]): 4 (Herbicidal ratio of 70% or higher and lower than 90%); F: Digitaria ciliaris, herbicidal effect grade (Digitaria ciliaris): 5 (Herbicidal ratio of 90% or more (almost completely withered)); c: corn, effect on crop grade (corn): 4 (Herbicidal ratio of 70% or higher and lower than 90%); g: rapeseed, effect on crop grade (rapeseed): 2 (Herbicidal ratio of 20% or higher and lower than 40%); f: beet, effect on crop grade (beet): 0 (Herbicidal ratio of 5% or lower (almost no effect))
CC(CC1CC(O)=C(c2c(C)cc(C)cc2C)C1=O)=NOCc1ccccc1 (stereo not drawn) [1-020]	–	–	–	5 (Herbicidal ratio of 90% or more (almost completely withered))	5 (Herbicidal ratio of 90% or more (almost completely withered))	–	–	–	–	–	–	–	–	–	–	e: wheat, effect on crop grade (wheat [1]): 5 (Herbicidal ratio of 90% or more (almost completely withered)); b (directly sowed rice plant) effect on crop grade (rice): 5 (Herbicidal ratio of 90% or more (almost completely withered)); J (Alopecurus myosuroides) herbicidal effect grade (Alopecurus myosuroides [2]): 5 (Herbicidal ratio of 90% or more (almost completely withered)); K (Lolium multiflorum Lam.) herbicidal effect grade (Lolium multiflorum Lam. [5]): 5 (Herbicidal ratio of 90% or more (almost completely withered)); P (Stellaria media) herbicidal effect grade (Stellaria media): 0 (Herbicidal ratio of 5% or lower (almost no effect)); b: directly sowed rice plant, effect on crop grade (rice plant): 5 (Herbicidal ratio of 90% or more (almost completely withered)); K: Lolium multiflorum Lam., herbicidal effect grade (Lolium multiflorum Lam. [6]): 5 (Herbicidal ratio of 90% or more (almost completely withered)); e (wheat) effect on crop grade (wheat [7]): 2 (Herbicidal ratio of 20% or higher and lower than 40%); F (Digitaria ciliaris) herbicidal effect grade (Digitaria ciliaris): 5 (Herbicidal ratio of 90% or more (almost completely withered)); c (corn) effect on crop grade (corn): 1 (Herbicidal ratio of 5% or higher and lower than 20%); J: Alopecurus myosuroides, herbicidal effect grade (Alopecurus myosuroides [8]): 5 (Herbicidal ratio of 90% or more (almost completely withered)); g (rapeseed) effect on crop grade (rapeseed): 4 (Herbicidal ratio of 70% or higher and lower than 90%); f (beet) effect on crop grade (beet): 0 (Herbicidal ratio of 5% or lower (almost no effect))
COc1cc(Br)cc(C)c1C1=C(O)CC(CC(C)=O)C1=O (stereo not drawn) [7-027, 2-(4-bromo-2-methoxy-6-methylphenyl)-3-hydroxy-5-(2-oxopropyl)cyclopent-2-enone]	0 (Herbicidal ratio of 5% or lower (almost no effect))	5 (Herbicidal ratio of 90% or more (almost completely withered))	5 (Herbicidal ratio of 90% or more (almost completely withered))	–	3 (Herbicidal ratio of 40% or higher and lower than 70%)	5 (Herbicidal ratio of 90% or more (almost completely withered))	0 (Herbicidal ratio of 5% or lower (almost no effect))	3 (Herbicidal ratio of 40% or higher and lower than 70%)	5 (Herbicidal ratio of 90% or more (almost completely withered))	2 (Herbicidal ratio of 20% or higher and lower than 40%)	5 (Herbicidal ratio of 90% or more (almost completely withered))	3 (Herbicidal ratio of 40% or higher and lower than 70%)	1 (Herbicidal ratio of 5% or higher and lower than 20%)	0 (Herbicidal ratio of 5% or lower (almost no effect))	0 (Herbicidal ratio of 5% or lower (almost no effect))	b (directly sowed rice plant) effect on crop grade ([3]; Table 24): 5 (Herbicidal ratio of 90% or more (almost completely withered))
CON=C(C)CC1CC(O)=C(c2c(C)cc(-c3cc(Cl)cc(Cl)c3)cc2C)C1=O (stereo not drawn) [6-087]	1 (Herbicidal ratio of 5% or higher and lower than 20%)	0 (Herbicidal ratio of 5% or lower (almost no effect))	4 (Herbicidal ratio of 70% or higher and lower than 90%)	5 (Herbicidal ratio of 90% or more (almost completely withered))	2 (Herbicidal ratio of 20% or higher and lower than 40%)	3 (Herbicidal ratio of 40% or higher and lower than 70%)	0 (Herbicidal ratio of 5% or lower (almost no effect))	1 (Herbicidal ratio of 5% or higher and lower than 20%)	4 (Herbicidal ratio of 70% or higher and lower than 90%)	0 (Herbicidal ratio of 5% or lower (almost no effect))	5 (Herbicidal ratio of 90% or more (almost completely withered))	0 (Herbicidal ratio of 5% or lower (almost no effect))	4 (Herbicidal ratio of 70% or higher and lower than 90%)	1 (Herbicidal ratio of 5% or higher and lower than 20%)	0 (Herbicidal ratio of 5% or lower (almost no effect))	–

— patent publication US11000033B2, “Ketone or oxime compound, and herbicide” (NISSAN CHEMICAL CORPORATION, priority 2014, dated 2021)
